Values joined by “and” are separate entries in the source; they are usually repeats but may differ in a detail not shown here. Identical values can stand only once.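 Growth conditions: 96-well plates. Treatment: test compound, 48 hours, 5 concentrations. Analysis: linear interpolation between bracketing concentrations; unreached endpoints set to highest concentration. GI50 marks 50% less growth. The concentration for full growth arrest is given as TGI.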
Tests used:
Assay in all cases: growth of human tumour cells (NCI), 48 h
[1] = test system: A549 NSCLC
[2] = test system: ACHN renal
[3] = test system: HCC-2998 colon
[4] = test system: HCT-15 colon
[5] = test system: HL-60(TB) leukemia
[6] = test system: IGROV1 ovarian
[7] = test system: LOX IMVI melanoma
[8] = test system: MALME-3M melanoma
[9] = test system: MDA-MB-435
[10] = test system: OVCAR-5 ovarian
[11] = test system: T-47D breast
[12] = test system: U251 CNS
[13] = test system: UACC-257 melanoma
[14] = test system: UACC-62 melanoma

Row | SMILES | TGI [1] | TGI [2] | TGI [3] | TGI [4] | TGI [5] | TGI [6] | TGI [7] | TGI [8] | TGI [9] | TGI [10] | TGI [11] | TGI [12] | TGI [13] | TGI [14] | GI50 [9] | GI50 [11]
1 | COc1ccc(N2C(=O)C3c4[nH]c5ccc(OCc6ccccc6)cc5c4C4CCC(C(C)C)CC4C3C2=O)cc1 (stereo not drawn) | > 100 µM | > 30.4 µM | > 100 µM | > 100 µM | 23.9 µM | > 80.6 µM | > 100 µM | > 100 µM | > 100 µM | > 100 µM | > 100 µM | > 73.1 µM | > 100 µM | > 51.7 µM |  | 
2 | O=C1Nc2ccc(Br)cc2/C1=C/C(=O)c1ccccc1 | > 62.6 µM | 3.32 µM | 29 µM | 6.51 µM | > 29.1 µM | 13.3 µM | 4.02 µM | 16.8 µM | 42 µM | 53.6 µM | 32.1 µM | 36.7 µM | 29 µM | 32.9 µM |  | 
3 | C(=N/NC1=NCCN1)/c1c2ccccc2c(/C=N\NC2=NCCN2)c2ccccc12 | 0.258 µM and 1.37 µM and 1.12 µM | 1.26 µM and 3.97 µM | 0.439 µM and 0.47 µM and 0.658 µM | 214 µM | 1.13 µM and 2.33 µM and 0.725 µM | 0.661 µM and 3.09 µM and 4.75 µM | 0.27 µM and 0.332 µM and 1.75 µM | 0.259 µM and 0.564 µM and 0.477 µM | 0.271 µM and 0.477 µM | 1.38 µM and 0.95 µM and 0.793 µM | 0.939 µM and 4.13 µM | 0.722 µM and 0.309 µM and 1.16 µM | 0.393 µM and 0.902 µM and 0.801 µM | 0.274 µM and 0.425 µM and 0.242 µM | 0.155 µM | 0.174 µM
4 | S=C(Nc1cccc(C2(N3CCCCC3)CCCCC2)c1)Nc1cccc(C2(N3CCCCC3)CCCCC2)c1 | > 100 µM | 54 µM | 6.07 µM | > 100 µM | 38.2 µM | > 100 µM | 26.7 µM | 36.1 µM | 30.6 µM | > 100 µM | 36.6 µM | 50.4 µM | 33.4 µM | 33.3 µM |  | 
5 | CCCCCCC(=O)OC[n+]1cccc(-c2c(COC(=O)NC(C)C)c(COC(=O)NC(C)C)c3n2CCC3)c1 | > 100 µM | 89.1 µM | > 100 µM | > 100 µM | > 48.9 µM | > 86.6 µM | 69 µM | 98.5 µM | > 100 µM | > 100 µM | > 100 µM | > 100 µM | > 100 µM | 72.9 µM |  | 
6 | CC(=O)Nc1nnc(S(=O)(=O)NC(=S)Nc2ccc(Cl)cc2)s1 | > 100 µM | > 100 µM | > 100 µM | > 100 µM | > 100 µM | > 100 µM | > 100 µM | > 100 µM | > 100 µM | > 100 µM | > 100 µM | > 100 µM | > 100 µM | > 100 µM |  | 
7 | CC(=O)Oc1cc(S(=O)(=O)Nc2n[nH]c(N)n2)c(S)cc1Cl | > 100 µM | > 100 µM | > 100 µM | > 100 µM | > 100 µM | > 100 µM | > 100 µM | > 100 µM | > 100 µM | > 100 µM | > 100 µM | > 100 µM | > 100 µM | > 100 µM |  | 
8 | O=C(O)CO/N=C1/C(c2c(O)[nH]c3ccccc23)=Nc2ccccc21 | > 100 µM | > 100 µM | > 100 µM | > 100 µM | > 100 µM | > 100 µM | > 100 µM | 99.5 µM | > 100 µM | > 100 µM | > 100 µM | > 100 µM | > 100 µM | > 100 µM |  | 
9 | CCOC(=O)c1ccc(Nc2cnc3ccc(C(F)(F)F)cc3n2)cc1 | 32.3 µM | 28.5 µM | 26.7 µM | 35.5 µM | 37.7 µM | 30.4 µM | 29.3 µM | 79.2 µM | 61.8 µM | 74.7 µM | 46.7 µM | 31.8 µM | 56 µM | 33.5 µM |  | 

Reference: PubChem BioAssay (NCI)
